This passage reports N20 formed results from ChEMBL document CHEMBL1125018, “Evidence for nitroxyl in the catalase-mediated bioactivation of the alcohol deterrent agent cyanamide” (J Med Chem, 1990).

Values joined by “and” are separate entries in the source; they are usually repeats but may differ in a detail not shown here. Equal values may be shown once.

Assay [1] can be described thus: Nitrous oxide formed in the oxidation of 15NH2-labeled cyanamide by catalase/glucose-glucose oxidase using gas chromatography.
A short description of assay [2]: Nitrous oxide formed in the oxidation of U-labeled [N15]-cyanamide by catalase/glucose-glucose oxidase using gas chromatography.
A short description of assay [3]: Nitrous oxide formed in the oxidation of unlabeled cyanamide by catalase/glucose-glucose oxidase using gas chromatography.

As to `N#CN`, the N20 formed is 186 nM in assay [1]; 538 nM in assay [2]; 497 nM and 440 nM in assay [3].
